Assay results from PubChem BioAssay (NCI).
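How tested: cells in 96-well plates exposed to compound for 48 hours at five concentrations. The concentration for 50% growth inhibition is given as GI50. TGI: concentration producing complete growth inhibition.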

Key:
Assay in all cases: NCI-60 cell line screen, 48 h
SF-539 CNS = system: SF-539 CNS
U251 CNS = system: U251 CNS
A549 NSCLC = system: A549 NSCLC
CCRF-CEM leukemia = system: CCRF-CEM leukemia
EKVX NSCLC = system: EKVX NSCLC
NCI-H460 lung = system: NCI-H460 lung
OVCAR-5 ovarian = system: OVCAR-5 ovarian
NCI-H522 lung = system: NCI-H522 lung
COLO 205 colon = system: COLO 205 colon
UACC-257 melanoma = system: UACC-257 melanoma
HL-60(TB) leukemia = system: HL-60(TB) leukemia
NCI/ADR-RES ovarian = system: NCI/ADR-RES ovarian
HCC-2998 colon = system: HCC-2998 colon
ACHN renal = system: ACHN renal
OVCAR-8 ovarian = system: OVCAR-8 ovarian
SK-MEL-5 melanoma = system: SK-MEL-5 melanoma
SW-620 colon = system: SW-620 colon
NCI-H226 lung = system: NCI-H226 lung
UACC-62 melanoma = system: UACC-62 melanoma
OVCAR-3 ovarian = system: OVCAR-3 ovarian
SNB-19 CNS = system: SNB-19 CNS
SK-MEL-28 melanoma = system: SK-MEL-28 melanoma
RPMI-8226 leukemia = system: RPMI-8226 leukemia
SK-MEL-2 melanoma = system: SK-MEL-2 melanoma
A498 renal = system: A498 renal
SF-268 CNS = system: SF-268 CNS
LOX IMVI melanoma = system: LOX IMVI melanoma
UO-31 renal = system: UO-31 renal
HS 578T breast = system: HS 578T breast
HOP-62 NSCLC = system: HOP-62 NSCLC
MOLT-4 leukemia = system: MOLT-4 leukemia
SK-OV-3 ovarian = system: SK-OV-3 ovarian
SNB-75 CNS = system: SNB-75 CNS
MDA-MB-231 breast = system: MDA-MB-231 breast
HCT-15 colon = system: HCT-15 colon
OVCAR-4 ovarian = system: OVCAR-4 ovarian
HCT-116 colon = system: HCT-116 colon
IGROV1 ovarian = system: IGROV1 ovarian
KM12 colon = system: KM12 colon
T-47D breast = system: T-47D breast
HT29 colon = system: HT29 colon
TK-10 renal = system: TK-10 renal
MALME-3M melanoma = system: MALME-3M melanoma
SF-295 CNS = system: SF-295 CNS
PC-3 prostate = system: PC-3 prostate
RXF 393 renal = system: RXF 393 renal
SN12C renal = system: SN12C renal
MCF7 breast = system: MCF7 breast
SR leukemia = system: SR leukemia
786-0 renal = system: 786-0 renal
BT-549 breast = system: BT-549 breast
HOP-92 NSCLC = system: HOP-92 NSCLC
NCI-H23 lung = system: NCI-H23 lung
K-562 leukemia = system: K-562 leukemia
MDA-MB-435 = system: MDA-MB-435
DU-145 prostate = system: DU-145 prostate
M14 melanoma = system: M14 melanoma

`O=c1ccccc(-c2ccc(Br)cc2)c1O` showed a GI50 (SF-539 CNS) of 458 nM, a TGI (SF-539 CNS) of 12100 nM and a GI50 (U251 CNS) of 383 nM. The TGI (U251 CNS) was 13600 nM, the GI50 (A549 NSCLC) was 322 nM and the TGI (A549 NSCLC) was 24000 nM. It also gave a GI50 (CCRF-CEM leukemia) of 291 nM, a TGI (CCRF-CEM leukemia) of over 100000 nM and a GI50 (EKVX NSCLC) of 343 nM. It also gave a TGI (EKVX NSCLC) of 15000 nM, a GI50 (NCI-H460 lung) of 318 nM and a TGI (NCI-H460 lung) of 10600 nM. For the same compound, the GI50 (OVCAR-5 ovarian) was 725 nM, the TGI (OVCAR-5 ovarian) was over 100000 nM and the GI50 (NCI-H522 lung) was 461 nM. The TGI (NCI-H522 lung) was 40900 nM, the GI50 (COLO 205 colon) was 466 nM and the TGI (COLO 205 colon) was 27000 nM. The GI50 (UACC-257 melanoma) was 230 nM, the TGI (UACC-257 melanoma) was 8760 nM and the GI50 (HL-60(TB) leukemia) was 262 nM. The TGI (HL-60(TB) leukemia) was 718 nM, the GI50 (NCI/ADR-RES ovarian) was 289 nM and the TGI (NCI/ADR-RES ovarian) was 2370 nM. The GI50 (HCC-2998 colon) was 425 nM, the TGI (HCC-2998 colon) was 21800 nM and the GI50 (ACHN renal) was 367 nM. The TGI (ACHN renal) was 25100 nM, the GI50 (OVCAR-8 ovarian) was 383 nM and the TGI (OVCAR-8 ovarian) was over 100000 nM. For the same compound, the GI50 (SK-MEL-5 melanoma) was 247 nM, the TGI (SK-MEL-5 melanoma) was 701 nM and the GI50 (SW-620 colon) was 410 nM. It also gave a TGI (SW-620 colon) of 40500 nM, a GI50 (NCI-H226 lung) of 1040 nM and a TGI (NCI-H226 lung) of 16600 nM. The GI50 (UACC-62 melanoma) was 298 nM, the TGI (UACC-62 melanoma) was 1730 nM and the GI50 (OVCAR-3 ovarian) was 412 nM. It also gave a TGI (OVCAR-3 ovarian) of 27600 nM, a GI50 (SNB-19 CNS) of 459 nM and a TGI (SNB-19 CNS) of over 100000 nM. The GI50 (SK-MEL-28 melanoma) was 489 nM, the TGI (SK-MEL-28 melanoma) was 26400 nM and the GI50 (RPMI-8226 leukemia) was 401 nM. The TGI (RPMI-8226 leukemia) was 25000 nM, the GI50 (SK-MEL-2 melanoma) was 957 nM and the TGI (SK-MEL-2 melanoma) was 25800 nM. The GI50 (A498 renal) was 1210 nM, the TGI (A498 renal) was 7680 nM and the GI50 (SF-268 CNS) was 420 nM. It also gave a TGI (SF-268 CNS) of over 100000 nM, a GI50 (LOX IMVI melanoma) of 323 nM and a TGI (LOX IMVI melanoma) of 13800 nM. For the same compound, the GI50 (UO-31 renal) was 369 nM, the TGI (UO-31 renal) was 20400 nM and the GI50 (HS 578T breast) was 4610 nM. For the same compound, the TGI (HS 578T breast) was 83800 nM, the GI50 (HOP-62 NSCLC) was 377 nM and the TGI (HOP-62 NSCLC) was 15900 nM. The GI50 (MOLT-4 leukemia) was 334 nM, the TGI (MOLT-4 leukemia) was over 100000 nM and the GI50 (SK-OV-3 ovarian) was 428 nM. The TGI (SK-OV-3 ovarian) was 24100 nM, the GI50 (SNB-75 CNS) was 611 nM and the TGI (SNB-75 CNS) was 27600 nM. The GI50 (MDA-MB-231 breast) was 737 nM, the TGI (MDA-MB-231 breast) was 35700 nM and the GI50 (HCT-15 colon) was 256 nM. It also gave a TGI (HCT-15 colon) of 36000 nM, a GI50 (OVCAR-4 ovarian) of 330 nM and a TGI (OVCAR-4 ovarian) of 27300 nM. It also gave a GI50 (HCT-116 colon) of 404 nM, a TGI (HCT-116 colon) of 14600 nM and a GI50 (IGROV1 ovarian) of 432 nM. It also gave a TGI (IGROV1 ovarian) of over 100000 nM, a GI50 (KM12 colon) of 430 nM and a TGI (KM12 colon) of 22600 nM. For the same compound, the GI50 (T-47D breast) was 562 nM, the TGI (T-47D breast) was 41300 nM and the GI50 (HT29 colon) was 6440 nM. The TGI (HT29 colon) was 36800 nM, the GI50 (TK-10 renal) was 541 nM and the TGI (TK-10 renal) was 70700 nM. It also gave a GI50 (MALME-3M melanoma) of 2180 nM, a TGI (MALME-3M melanoma) of 47700 nM and a GI50 (SF-295 CNS) of 340 nM. The TGI (SF-295 CNS) was 16800 nM, the GI50 (PC-3 prostate) was 628 nM and the TGI (PC-3 prostate) was 37300 nM. The GI50 (RXF 393 renal) was 324 nM, the TGI (RXF 393 renal) was 8120 nM and the GI50 (SN12C renal) was 829 nM. The TGI (SN12C renal) was 16400 nM, the GI50 (MCF7 breast) was 311 nM and the TGI (MCF7 breast) was 46800 nM. The GI50 (SR leukemia) was 316 nM, the TGI (SR leukemia) was 17100 nM and the GI50 (786-0 renal) was 408 nM. The TGI (786-0 renal) was 21700 nM, the GI50 (BT-549 breast) was 795 nM and the TGI (BT-549 breast) was 54000 nM. It also gave a GI50 (HOP-92 NSCLC) of 6530 nM, a TGI (HOP-92 NSCLC) of 34100 nM and a GI50 (NCI-H23 lung) of 528 nM. For the same compound, the TGI (NCI-H23 lung) was 15800 nM, the GI50 (K-562 leukemia) was 463 nM and the TGI (K-562 leukemia) was over 100000 nM. The GI50 (MDA-MB-435) was 386 nM, the TGI (MDA-MB-435) was over 100000 nM and the GI50 (DU-145 prostate) was 595 nM. The TGI (DU-145 prostate) was 45000 nM, the GI50 (M14 melanoma) was 316 nM and the TGI (M14 melanoma) was 13100 nM.
